Measured values published in patent publication US9999650B2, “Peptide and peptidomimetic inhibitors” (Ra Pharmaceuticals, Inc., priority 2012, dated 2018).
Numbered stars: 1 amine (or outer) side, 2 acyl side, 3 side chain; on linkers, the order of the positions; unused ones are H or OH. Bridge positions count the residues as written; N and C are the ends. Square brackets hold non-standard residues; d marks the D form. Peptide text beside a SMILES is read from it. Trp(5-Cl) = N[C@@H](Cc1c[nH]c2ccc(Cl)cc12)C(=O)O; Phe(4-CH2NH2) = NCc1ccc(C[C@H](N)C(=O)O)cc1; X1 = O=C(C(N[*:1])C1CCc2ccccc2C1)[*:2]; mXylylene = c1cc(C[*:1])cc(C[*:2])c1; dPhg = N[C@@H](C(=O)O)c1ccccc1; Phg = N[C@H](C(=O)O)c1ccccc1; Tle = CC(C)(C)[C@H](N)C(=O)O; NMeS = CN[C@@H](CO)C(=O)O; Nva = CCC[C@H](N)C(=O)O; Mpa = O=C(O)CCS

Legend:
Type in all cases: biochemical
[1] = target: T1, human plasma kallikrein (Homo sapiens, UniProt P03952); test: Enzyme inhibition assay (fluorogenic substrate H-Pro-Phe-Arg-AMC); conditions: Kallikrein inhibitory activity; 1 nM activated human kallikrein, 500 μM H-Pro-Phe-Arg-AMC, 1 hour room temperature; read-out: Avg. IC50
T1 construct: purchased Enzyme Research Laboratories HPKa 1303
Procedure, shortened: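 Activated enzyme (1 nM final) was preincubated 5 min at room temperature with peptides in 10-point 8-fold dilutions. The buffer was 50 mM Tris-HCl pH 7.2, 150 mM NaCl, 10 mM CaCl2, 0.05% Brij-35. After 1 h at room temperature with 500 μM substrate (final), fluorescence was read at 360/460 nm to derive IC50.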

[2] = target: T2, Factor VIIa (Homo sapiens, UniProt P08709); test: Inhibitor specificity IC50 assay, Factor VIIa (Boc-Val-Pro-Arg-AMC); conditions: substrate Boc-Val-Pro-Arg-AMC
T2 construct: Factor VIIa (Enzyme Research Laboratories, South Bend, Ind.); purchased Enzyme Research Laboratories
T2 sequence (P08709 61-212 limits assumed): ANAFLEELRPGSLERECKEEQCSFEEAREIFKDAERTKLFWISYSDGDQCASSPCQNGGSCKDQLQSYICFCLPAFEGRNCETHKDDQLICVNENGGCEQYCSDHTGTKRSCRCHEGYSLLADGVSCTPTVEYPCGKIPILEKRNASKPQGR
T2 sequence (P08709 213-466 limits assumed): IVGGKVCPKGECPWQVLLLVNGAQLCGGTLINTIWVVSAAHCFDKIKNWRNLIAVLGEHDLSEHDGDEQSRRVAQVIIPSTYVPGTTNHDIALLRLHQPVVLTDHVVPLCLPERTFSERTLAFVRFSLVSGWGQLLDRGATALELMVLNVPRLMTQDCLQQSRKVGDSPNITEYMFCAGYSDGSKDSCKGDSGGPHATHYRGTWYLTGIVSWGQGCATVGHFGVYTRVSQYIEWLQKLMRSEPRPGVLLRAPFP
Description: (§1) Ten 8-fold serial dilutions of peptides (10 mM DMSO stocks) were performed in DMSO and then added to TCNB (50 mM Tris-HCl pH 7.2, 150 mM NaCl, 10 mM CaCl2, 0.05% Brij-35) and sonicated. 50 μL of the peptide dilutions were added to microtitre plates (96 well, black non-binding surface, Corning, 3650) and incubated for 5 minutes at room temperature with 4 nM activated human kallikrein (final concentration after addition of fluorogenic substrate: 1 nM). The samples were then incubated for 1 hour at room temperature with 2 mM H-Pro-Phe-Arg-AMC (final concentration 500 μM). Relative Fluorescence Units (RFU) were measured at excitation/emission 360 nm/460 nm by a SpectraMax M3.
(§2) To determine the specificity of peptide inhibitors, an IC50 assay, as described in Example 4, was performed on a variety of serine proteases related to human plasma kallikrein. The enzymes tested include mouse plasma kallikrein (R&D Systems, Minneapolis, Minn.), and the human enzymes Factor VIIa (Enzyme Research Laboratories, South Bend, Ind.), Factor Xa (Enzyme Research Laboratories, South Bend, Ind.), Factor XIa (Enzyme Research Laboratories, South Bend, Ind.), Factor XIIa (Enzyme Research Laboratories, South Bend, Ind.), tissue kallikrein KLK13 (R&D Systems, Minneapolis, Minn.), thrombin (Enzyme Research Laboratories, South Bend, Ind.) and plasmin (Enzyme Research Laboratories, South Bend, Ind.).
(§3) Each enzyme was tested with the following specific fluorgenic substrates (available from Bachem; Torrance, Calif.): mouse plasma kallikrein (Pro-Phe-Arg-AMC), Factor VIIa (Boc-Val-Pro-Arg-AMC), Factor Xa (Boc-Gln-Gly-Arg-AMC), Factor XIa (Boc-Gln-Gly-Arg-AMC), Factor XIIa (Boc-Gln-Gly-Arg-AMC), KLK13 (Boc-Val-Pro-Arg-AMC), thrombin (Boc-Val-Pro-Arg-AMC) and plasmin (Boc-Val-Leu-Lys-AMC). Peptide inhibitors R2006, R2010, R2012, R2019, R2023, R2030, R2036, R2041, R2047, R2104 and R2051 were assayed.

[3] = target: T3, Factor Xa (Homo sapiens, UniProt P00742); test: Inhibitor specificity IC50 assay, Factor Xa (Boc-Gln-Gly-Arg-AMC); conditions: substrate Boc-Gln-Gly-Arg-AMC
T3 construct: Factor Xa (Enzyme Research Laboratories, South Bend, Ind.); purchased Enzyme Research Laboratories
Description: (§4) Activated human plasma kallikrein (Enzyme Research Laboratories, HPKa 1303) was reacted with H-Pro-Phe-Arg-7-amido-4-methylcoumarin (H-Pro-Pre-Arg-AMC) (a fluorogenic substrate for plasma as well as pancreatic and urinary kallikreins; Bachem I-1295) and candidate inhibitory peptides to determine the IC50 of the inhibitor.
as §1, §2, §3

[4] = target: T4, Factor XIa (Homo sapiens, UniProt P03951); test: Inhibitor specificity IC50 assay, Factor XIa (Boc-Gln-Gly-Arg-AMC); conditions: substrate Boc-Gln-Gly-Arg-AMC
T4 construct: Factor XIa (Enzyme Research Laboratories, South Bend, Ind.); purchased Enzyme Research Laboratories
Description: as §4, §1, §2, §3

[5] = target: T5, Factor XIIa (Homo sapiens, UniProt P00748); test: Inhibitor specificity IC50 assay, Factor XIIa (Boc-Gln-Gly-Arg-AMC); conditions: substrate Boc-Gln-Gly-Arg-AMC
T5 construct: Factor XIIa (Enzyme Research Laboratories, South Bend, Ind.); purchased Enzyme Research Laboratories
T5 sequence (P00748 373-615 limits assumed): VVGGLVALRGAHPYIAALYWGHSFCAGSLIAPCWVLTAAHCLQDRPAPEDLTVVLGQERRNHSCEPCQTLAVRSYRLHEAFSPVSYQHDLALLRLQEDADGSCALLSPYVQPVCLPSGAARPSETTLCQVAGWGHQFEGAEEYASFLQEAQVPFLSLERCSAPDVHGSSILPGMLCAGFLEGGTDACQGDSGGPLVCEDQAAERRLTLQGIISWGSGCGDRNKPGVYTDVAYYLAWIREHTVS
Description: as §4, §1, §2, §3

[6] = target: T6, tissue kallikrein KLK13 (Homo sapiens, UniProt Q9UKR3); test: Inhibitor specificity IC50 assay, KLK13 (Boc-Val-Pro-Arg-AMC); conditions: substrate Boc-Val-Pro-Arg-AMC
T6 construct: purchased R&D Systems
T6 sequence (Q9UKR3 17-277): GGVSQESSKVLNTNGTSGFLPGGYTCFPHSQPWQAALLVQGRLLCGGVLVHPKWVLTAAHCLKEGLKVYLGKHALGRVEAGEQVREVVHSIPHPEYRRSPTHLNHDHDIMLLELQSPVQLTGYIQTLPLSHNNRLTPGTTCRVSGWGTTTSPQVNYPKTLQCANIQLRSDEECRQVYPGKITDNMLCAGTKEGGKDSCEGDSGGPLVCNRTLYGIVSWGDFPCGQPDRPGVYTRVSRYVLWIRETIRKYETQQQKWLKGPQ
Description: as §4, §1, §2, §3

[7] = target: T7, thrombin (Homo sapiens, UniProt P00734); test: Inhibitor specificity IC50 assay, thrombin (Boc-Val-Pro-Arg-AMC); conditions: substrate Boc-Val-Pro-Arg-AMC
T7 construct: thrombin (Enzyme Research Laboratories, South Bend, Ind.); purchased Enzyme Research Laboratories
Description: as §4, §1, §2, §3

[8] = target: T8, plasmin (Homo sapiens, UniProt P00747); test: Inhibitor specificity IC50 assay, plasmin (Boc-Val-Leu-Lys-AMC); conditions: substrate Boc-Val-Leu-Lys-AMC
T8 construct: plasmin (Enzyme Research Laboratories, South Bend, Ind.); purchased Enzyme Research Laboratories
Description: as §4, §1, §2, §3

T3 sequence (P00742 41-179 limits assumed): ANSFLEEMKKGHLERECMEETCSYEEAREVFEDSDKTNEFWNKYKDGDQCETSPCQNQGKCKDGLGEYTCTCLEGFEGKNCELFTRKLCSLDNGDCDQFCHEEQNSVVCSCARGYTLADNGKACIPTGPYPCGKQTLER
T3 sequence (P00742 235-488 limits assumed): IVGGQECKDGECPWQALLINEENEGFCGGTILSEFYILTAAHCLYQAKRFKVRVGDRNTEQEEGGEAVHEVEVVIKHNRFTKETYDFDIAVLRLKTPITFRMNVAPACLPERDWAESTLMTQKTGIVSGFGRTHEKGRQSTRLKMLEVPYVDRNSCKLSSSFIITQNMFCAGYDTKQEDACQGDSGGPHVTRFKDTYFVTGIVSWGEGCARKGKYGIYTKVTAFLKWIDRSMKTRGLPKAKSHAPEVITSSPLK
T1 sequence (P03952 20-390 limits assumed): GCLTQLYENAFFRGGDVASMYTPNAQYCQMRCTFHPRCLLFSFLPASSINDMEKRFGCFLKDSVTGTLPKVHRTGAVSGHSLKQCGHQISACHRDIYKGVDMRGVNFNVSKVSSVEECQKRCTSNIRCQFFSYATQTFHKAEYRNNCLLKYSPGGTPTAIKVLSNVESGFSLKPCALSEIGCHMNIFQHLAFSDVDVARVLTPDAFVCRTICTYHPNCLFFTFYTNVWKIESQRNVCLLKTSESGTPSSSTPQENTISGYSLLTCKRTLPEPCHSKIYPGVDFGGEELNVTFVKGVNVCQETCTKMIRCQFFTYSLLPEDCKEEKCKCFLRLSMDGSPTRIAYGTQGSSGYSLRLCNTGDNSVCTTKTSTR
T1 sequence (P03952 391-638 limits assumed): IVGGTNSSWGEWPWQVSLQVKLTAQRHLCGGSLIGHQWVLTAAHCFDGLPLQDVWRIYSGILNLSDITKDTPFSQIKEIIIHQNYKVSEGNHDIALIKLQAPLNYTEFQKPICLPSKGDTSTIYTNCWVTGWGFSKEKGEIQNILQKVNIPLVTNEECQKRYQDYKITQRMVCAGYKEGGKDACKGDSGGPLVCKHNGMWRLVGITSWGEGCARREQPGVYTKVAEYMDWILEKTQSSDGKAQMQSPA
T4 sequence (P03951 19-387 limits assumed): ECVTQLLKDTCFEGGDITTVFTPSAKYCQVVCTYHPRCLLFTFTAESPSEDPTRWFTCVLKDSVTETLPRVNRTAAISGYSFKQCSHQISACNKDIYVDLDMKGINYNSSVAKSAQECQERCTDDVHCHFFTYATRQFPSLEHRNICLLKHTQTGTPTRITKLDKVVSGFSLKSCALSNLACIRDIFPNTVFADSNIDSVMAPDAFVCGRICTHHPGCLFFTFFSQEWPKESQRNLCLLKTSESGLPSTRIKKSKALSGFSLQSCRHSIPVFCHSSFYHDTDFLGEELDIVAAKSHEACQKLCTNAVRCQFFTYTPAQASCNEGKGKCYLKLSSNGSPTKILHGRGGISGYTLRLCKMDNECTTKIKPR
T4 sequence (P03951 388-625 limits assumed): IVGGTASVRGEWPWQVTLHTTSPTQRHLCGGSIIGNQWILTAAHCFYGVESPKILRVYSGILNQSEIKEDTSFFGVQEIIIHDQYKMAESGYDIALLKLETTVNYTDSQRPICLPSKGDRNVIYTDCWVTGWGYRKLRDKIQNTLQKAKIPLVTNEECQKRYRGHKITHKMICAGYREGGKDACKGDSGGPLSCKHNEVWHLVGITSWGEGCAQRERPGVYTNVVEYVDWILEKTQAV
T8 sequence (P00747 97-580 limits assumed): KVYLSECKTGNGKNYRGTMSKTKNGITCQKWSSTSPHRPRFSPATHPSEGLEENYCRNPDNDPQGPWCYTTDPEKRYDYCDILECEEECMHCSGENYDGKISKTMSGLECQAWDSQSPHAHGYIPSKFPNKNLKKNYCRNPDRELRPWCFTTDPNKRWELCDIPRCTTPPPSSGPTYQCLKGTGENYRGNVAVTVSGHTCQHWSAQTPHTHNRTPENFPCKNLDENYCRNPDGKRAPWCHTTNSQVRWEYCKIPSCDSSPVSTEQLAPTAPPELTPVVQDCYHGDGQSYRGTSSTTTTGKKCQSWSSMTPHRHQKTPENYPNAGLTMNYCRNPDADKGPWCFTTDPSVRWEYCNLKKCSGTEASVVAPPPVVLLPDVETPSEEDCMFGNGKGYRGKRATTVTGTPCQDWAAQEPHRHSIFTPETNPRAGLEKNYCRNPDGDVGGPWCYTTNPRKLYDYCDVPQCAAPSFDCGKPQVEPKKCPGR
T8 sequence (P00747 581-810 limits assumed): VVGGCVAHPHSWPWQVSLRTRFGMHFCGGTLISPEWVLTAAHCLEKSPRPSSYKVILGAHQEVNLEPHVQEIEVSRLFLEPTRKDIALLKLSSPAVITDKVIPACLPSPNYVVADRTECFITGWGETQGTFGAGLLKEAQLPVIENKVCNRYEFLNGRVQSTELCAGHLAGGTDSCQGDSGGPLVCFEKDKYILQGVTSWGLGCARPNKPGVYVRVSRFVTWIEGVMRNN

IC50 [1] [µM]	IC50 [2] [µM]	IC50 [3] [µM]	IC50 [4] [µM]	IC50 [5] [µM]	IC50 [6] [µM]	IC50 [7] [µM]	IC50 [8] [µM]	SMILES
0.0099	> 100	> 100	> 15	> 100	> 100	> 100	> 100	CC[C@H](C)[C@@H]1NC(=O)[C@H](CO)NC(=O)[C@H](CCC(=O)O)NC(=O)[C@@H](NC(=O)[C@@H](N)CCSC)CSCc2cccc(c2)CSC[C@@H](C(=O)N[C@@H](CCCNC(=N)N)C(=O)N[C@H](C(N)=O)C(C)(C)C)NC1=O [Compound R2010, [mXylyl(2,6)]MCESICR-Tbg-NH2] (H-MCESICR[Tle]-NH2; linker 2-6 via mXylylene; N-terminus assumed)
0.0083	–	–	> 8.3	–	> 100	–	–	CSCC[C@H](N)C(=O)N[C@H]1CSCc2cccc(c2)CSC[C@@H](C(=O)N[C@@H](CCCNC(=N)N)C(=O)N[C@H](C(N)=O)C(C)C)NC(=O)[C@H](c2ccccc2)NC(=O)[C@H](CO)NC(=O)[C@H](CCC(=O)O)NC1=O [Compound R2012, [mXylyl(2,6)]MCES-Phg-CRV-NH2] (H-MCES[Phg]CRV-NH2; linker 2-6 via mXylylene; N-terminus assumed)
0.025	> 100	> 100	> 10.4	> 100	> 100	> 100	> 100	CCC[C@H](N)C(=O)N[C@H]1CSCc2cccc(c2)CSC[C@@H](C(=O)N[C@@H](CCCNC(=N)N)C(=O)N[C@H](C(N)=O)C(C)(C)C)NC(=O)[C@H](c2ccccc2)NC(=O)[C@@H]2CCCN2C(=O)[C@H](CCC(=O)O)NC1=O [Compound R2030, [mXylyl(2,6)]Nvl-CEP-Phg-CR-Tbg-NH2] (H-[Nva]CEP[Phg]CR[Tle]-NH2; linker 2-6 via mXylylene)

The remaining lines, values behind:

SMILES	IC50 [1] [µM]	IC50 [2] [µM]	IC50 [3] [µM]	IC50 [4] [µM]	IC50 [5] [µM]	IC50 [6] [µM]	IC50 [7] [µM]	IC50 [8] [µM]
CC[C@H](C)[C@@H]1NC(=O)[C@H](CO)NC(=O)[C@H](CCC(=O)O)NC(=O)[C@@H](NC(C)=O)CSCc2cccc(c2)CSC[C@@H](C(=O)N[C@@H](CCCNC(=N)N)C(=O)N[C@H](C(N)=O)C(C)C)NC1=O [Compound R2023, [mXylyl(1,5)]Ac-CESICRV-NH2] (Ac-CESICRV-NH2; linker 1-5 via mXylylene)	0.019	> 100	> 7	> 12.1	> 100	> 100	> 100	> 100
CC[C@H](C)[C@@H]1NC(=O)[C@H](CO)N(C)C(=O)[C@H](CCC(=O)O)NC(=O)[C@@H](NC(=O)[C@@H](N)CCSC)CSCc2cccc(c2)CSC[C@@H](C(=O)N[C@@H](CCCNC(=N)N)C(=O)N[C@H](C(N)=O)C(C)C)NC1=O [Compound R2019, [mXylyl(2,6)]MCE-nMeS-ICRV-NH2] (H-MCE[NMeS]ICRV-NH2; linker 2-6 via mXylylene; N-terminus assumed)	0.0523	> 100	> 10	> 9.1	> 12.5	> 16.4	> 100	> 21
CC[C@H](C)[C@@H]1NC(=O)[C@H](CO)NC(=O)[C@@H](C)NC(=O)[C@@H](NC(C)=O)CSCc2cccc(c2)CSC[C@@H](C(=O)N[C@@H](CCCNC(=N)N)C(=O)N[C@H](C(N)=O)C(C)C)NC1=O [Compound R2047, [mXylyl(1,5)]Ac-C-a-SICRV-NH2] (Ac-C[dA]SICRV-NH2; linker 1-5 via mXylylene)	–	> 100	> 100	> 13.8	> 100	> 100	> 100	> 100
CSCC[C@H](N)C(=O)N[C@@H](CS)C(=O)N[C@@H](CC(N)=O)C(=O)N[C@@H](Cc1ccc(O)cc1)C(=O)N[C@@H](Cc1c[nH]c2ccccc12)C(=O)N[C@@H](CO)C(=O)N1CCC[C@H]1C(=O)N[C@@H](Cc1c[nH]c2ccccc12)C(=O)N[C@H](C(=O)N[C@@H](CCC(=O)O)C(=O)N[C@@H](CS)C(=O)N[C@@H](CO)C(=O)N[C@@H](C)C(N)=O)[C@@H](C)O [Compound R2104, MCNYWSPWTECSA-NH2] (H-MCNYWSPWTECSA-NH2)	0.0034	> 100	> 100	> 5	> 100	> 100	> 100	–
CC(C)(C)[C@H](NC(=O)[C@H](CCCNC(=N)N)NC(=O)[C@@H]1CSCc2cccc(c2)CSCCC(=O)N2CCC[C@H]2C(=O)NC(C2CCc3ccccc3C2)C(=O)N1)C(N)=O (some centres unmarked) [Compound R2266] ([Mpa]P[X1]CR[Tle]-NH2; linker 1-4 via mXylylene)	0.118	–	–	–	–	–	–	–
CC(C)(C)[C@H](NC(=O)[C@H](CCCNC(=N)N)NC(=O)[C@@H]1CCCc2cccc(c2)OCCCC(=O)N2CCC[C@H]2C(=O)N[C@@H](C2CCCCC2)C(=O)N1)C(N)=O [Compound R2263]	> 100	–	–	–	–	–	–	–
CCC[C@H](N)C(=O)N[C@H]1CSCc2cccc(c2)CSC[C@@H](C(=O)N[C@@H](Cc2ccc(CN)cc2)C(=O)N[C@H](C(N)=O)C(C)C)NC(=O)[C@H]([C@@H](C)CC)NC(=O)[C@H](CO)NC(=O)[C@H](CCC(=O)O)NC1=O [Compound R2021, [mXylyl(2,6)]Nvl-CESIC-Phe(4-CH2NH2)-V-NH2] (H-[Nva]CESIC[Phe(4-CH2NH2)]V-NH2; linker 2-6 via mXylylene)	2	–	–	–	–	–	–	–
CC(C)(C)[C@H](NC(=O)[C@H](Cc1c[nH]c2ccc(Cl)cc12)NC(=O)[C@@H]1CSCc2cccc(c2)CSCCC(=O)N2CCC[C@H]2C(=O)N[C@H](c2ccccc2)C(=O)N1)C(N)=O [Compound R2210, [mXylyl(1,4)](des-NH2)C-P-(D-Phg)-C-5-C1-Trp-Tbg-NH2] ([Mpa]P[dPhg]C[Trp(5-Cl)][Tle]-NH2; linker 1-4 via mXylylene)	> 75	–	–	–	–	–	–	–
